From ChEMBL document CHEMBL1201862, “PubChem BioAssay data set” (2004)
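Results reflect a 48-hour exposure of cells in 96-well plates to compound at five concentrations. At the GI50, growth is halved.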 Calls of active or inactive are those of the source. Cut-off read from the data, not from the text of the source: active = GI50 up to about 1.1 µM and inactive = higher.

Legend:
Test in all cases: inhibition of tumour cell growth, NCI panel, 48 h
[1] = test system: 786-0
[2] = test system: A498
[3] = test system: A549
[4] = test system: ACHN
[5] = test system: BT-549
[6] = test system: CAKI-1
[7] = test system: CCRF-CEM
[8] = test system: COLO 205
[9] = test system: DU-145
[10] = test system: EKVX
[11] = test system: HCC 2998
[12] = test system: HCT-116
[13] = test system: HCT-15
[14] = test system: HL-60
[15] = test system: HOP-62
[16] = test system: HOP-92
[17] = test system: HT-29
[18] = test system: Hs-578T
[19] = test system: IGROV-1
[20] = test system: KM12
[21] = test system: M14
[22] = test system: MCF7
[23] = test system: MDA-MB-231
[24] = test system: MDA-MB-435
[25] = test system: MDA-N
[26] = test system: Malme-3M
[27] = test system: NCI-H23
[28] = test system: NCI-H460
[29] = test system: NCI-H522
[30] = test system: NCI/ADR-RES
[31] = test system: OVCAR-3
[32] = test system: OVCAR-4
[33] = test system: OVCAR-5
[34] = test system: OVCAR-8
[35] = test system: PC-3
[36] = test system: RPMI-8226
[37] = test system: RXF 393
[38] = test system: SF-268
[39] = test system: SF-295
[40] = test system: SF-539
[41] = test system: SK-MEL-28
[42] = test system: SK-MEL-2
[43] = test system: SK-MEL-5
[44] = test system: SK-OV-3
[45] = test system: SN12C
[46] = test system: SNB-19
[47] = test system: SNB-75
[48] = test system: SR
[49] = test system: SW-620
[50] = test system: T47D
[51] = test system: U-251
[52] = test system: UACC-257
[53] = test system: UACC-62
[54] = test system: UO-31
[55] = test system: K562
[56] = test system: LOX IMVI
[57] = test system: MOLT-4
[58] = test system: NCI-H226
[59] = test system: TK-10

`O=[N+]([O-])c1ccc(N/N=C(\c2ccccc2)c2ccccn2)nc1` was tested, and the GI50 [1] was 0.906 µM (active), the GI50 [2] was > 100 µM (inactive) and the GI50 [3] was 4.48 µM (inactive). For the same compound, the GI50 [4] was 0.0785 µM (active), the GI50 [5] was 15.5 µM (inactive) and the GI50 [6] was 0.497 µM (active). The GI50 [7] was < 0.0218 µM (active), the GI50 [8] was < 0.0391 µM (active) and the GI50 [9] was 5.53 µM (inactive). The GI50 [10] was 0.171 µM (active), the GI50 [11] was 5.46 µM (inactive) and the GI50 [12] was 0.21 µM (active). For the same compound, the GI50 [13] was 0.151 µM, the GI50 [14] was < 0.01 µM (active) and the GI50 [15] was 8.57 µM (inactive). The GI50 [16] was 10.5 µM (inactive), the GI50 [17] was 0.0253 µM (active) and the GI50 [18] was 4.29 µM (inactive). For the same compound, the GI50 [19] was 1.11 µM (active), the GI50 [20] was 6.62 µM (inactive) and the GI50 [21] was 0.182 µM (active). For the same compound, the GI50 [22] was < 0.0492 µM (active), the GI50 [23] was 1 µM (active) and the GI50 [24] was 7.41 µM (inactive). The GI50 [25] was 20 µM (inactive), the GI50 [26] was 0.0367 µM (active) and the GI50 [27] was 0.845 µM (active). The GI50 [28] was 0.957 µM (active), the GI50 [29] was 0.0794 µM (active) and the GI50 [30] was 0.658 µM (active). For the same compound, the GI50 [31] was 0.409 µM (active), the GI50 [32] was 18.7 µM (inactive) and the GI50 [33] was 14.4 µM (inactive). For the same compound, the GI50 [34] was 0.914 µM (active), the GI50 [35] was 0.92 µM (active) and the GI50 [36] was 0.59 µM (active). The GI50 [37] was 5.56 µM (inactive), the GI50 [38] was 2.51 µM (inactive) and the GI50 [39] was 5.32 µM (inactive). For the same compound, the GI50 [40] was 1.52 µM (inactive), the GI50 [41] was 9.14 µM (inactive) and the GI50 [42] was 14.8 µM (inactive). For the same compound, the GI50 [43] was 1.85 µM (inactive), the GI50 [44] was 4.86 µM (inactive) and the GI50 [45] was 0.429 µM (active). For the same compound, the GI50 [46] was 9.48 µM (inactive), the GI50 [47] was 7.06 µM (inactive) and the GI50 [48] was 1.48 µM (inactive). The GI50 [49] was 0.223 µM (active), the GI50 [50] was 0.0107 µM (active) and the GI50 [51] was 1.26 µM (inactive). For the same compound, the GI50 [52] was 0.262 µM (active), the GI50 [53] was 2.5 µM (inactive) and the GI50 [54] was 0.817 µM (active).
In the case of `COc1ncc(C=C(C#N)C#N)c(OC)n1`, the GI50 [1] is reported as 19.3 µM (inactive), the GI50 [2] is reported as > 100 µM (inactive) and the GI50 [3] is reported as > 100 µM (inactive). For the same compound, the GI50 [4] was 48.5 µM (inactive), the GI50 [5] was 33.7 µM (inactive) and the GI50 [6] was 36.1 µM (inactive). For the same compound, the GI50 [7] was 7.48 µM (inactive), the GI50 [8] was 36 µM (inactive) and the GI50 [9] was 52.5 µM (inactive). The GI50 [10] was 79.8 µM (inactive), the GI50 [12] was 26.1 µM (inactive) and the GI50 [13] was 29.9 µM. The GI50 [14] was 16.7 µM (inactive), the GI50 [15] was 83.6 µM (inactive) and the GI50 [16] was > 100 µM (inactive). For the same compound, the GI50 [17] was 40 µM (inactive), the GI50 [18] was 60.7 µM (inactive) and the GI50 [19] was 59.3 µM (inactive). For the same compound, the GI50 [55] was 38.6 µM (inactive), the GI50 [20] was 50 µM (inactive) and the GI50 [56] was 30.2 µM (inactive). For the same compound, the GI50 [21] was 18.7 µM (inactive), the GI50 [22] was 36.7 µM (inactive) and the GI50 [23] was 41.5 µM (inactive). For the same compound, the GI50 [24] was 26 µM (inactive), the GI50 [25] was 26.9 µM (inactive) and the GI50 [57] was 33.3 µM (inactive). The GI50 [26] was 35.2 µM (inactive), the GI50 [58] was > 100 µM (inactive) and the GI50 [27] was 31.3 µM (inactive). The GI50 [28] was 41 µM (inactive), the GI50 [29] was 16.7 µM (inactive) and the GI50 [30] was 22.6 µM (inactive). For the same compound, the GI50 [31] was 57.9 µM (inactive), the GI50 [32] was 48.9 µM (inactive) and the GI50 [33] was 86.7 µM (inactive). For the same compound, the GI50 [34] was 24.2 µM (inactive), the GI50 [35] was 39.2 µM (inactive) and the GI50 [36] was 24 µM (inactive). For the same compound, the GI50 [37] was > 100 µM (inactive), the GI50 [38] was 61.8 µM (inactive) and the GI50 [39] was 85.5 µM (inactive). For the same compound, the GI50 [40] was 30.8 µM (inactive), the GI50 [41] was 44.8 µM (inactive) and the GI50 [42] was 32.3 µM (inactive). For the same compound, the GI50 [43] was 29.3 µM (inactive), the GI50 [44] was > 100 µM (inactive) and the GI50 [45] was 26.8 µM (inactive). The GI50 [46] was 52.6 µM (inactive), the GI50 [47] was > 100 µM (inactive) and the GI50 [48] was 15.3 µM (inactive). For the same compound, the GI50 [49] was 26.2 µM (inactive), the GI50 [50] was > 100 µM (inactive) and the GI50 [59] was 37.3 µM (inactive). The GI50 [51] was 43.6 µM (inactive), the GI50 [52] was 22.1 µM (inactive) and the GI50 [53] was 33.8 µM (inactive). The GI50 [54] was 21.1 µM (inactive).
